We go through two compounds from patent US9365604B2, “Oligomer-nucleoside phosphate conjugates” (NEKTAR THERAPEUTICS, priority 2007, dated 2016).

One series concerns A2780. As to the kind of experiment: Sulforhodamine B (SRB) growth inhibition assay. It is filed as cell-based, Human. Particulars: for ratio vs gem (GI50) A2780: GI50 of conjugate vs gemcitabine; for GI50: SRB assay. A general note: Sulforhodamine B stains cellular protein and so reports cell mass.
The test system of a further series is HCT15. The series can be described thus: Sulforhodamine B (SRB) growth inhibition assay. The class given is cell-based, Human. The conditions noted are these: for ratio vs gem (GI50) HCT15: GI50 of conjugate vs gemcitabine; for GI50: SRB assay.
For the next series, the system named is HT29. The series can be described thus: Sulforhodamine B (SRB) growth inhibition assay. It is filed as cell-based, Human. Particulars: for ratio vs gem (GI50) HT29: GI50 of conjugate vs gemcitabine; for GI50: SRB assay.
The test system of another series is Hop62. As to the kind of experiment: Sulforhodamine B (SRB) growth inhibition assay. The class given is cell-based, Human. The conditions noted are these: for ratio vs gem (GI50) Hop62: GI50 of conjugate vs gemcitabine; for GI50: SRB assay.
For a further series, the system named is MCF7. As to the kind of experiment: Sulforhodamine B (SRB) growth inhibition assay. It is filed as cell-based, Human. The conditions noted are these: for ratio vs gem (GI50) MCF7: GI50 of conjugate vs gemcitabine; for GI50: SRB assay.
The next series relates to CAKI-1. The series can be described thus: In vitro cytotoxicity assay (CellTiter-Glo). The class given is cell-based. The conditions noted are these: for IC50: 72 h exposure, CellTiter-Glo.
The test system of the next series is MDCK cells. The series can be described thus: Bi-directional permeability in MDCK cells.
[1] abbreviates: 48 h drug exposure, read-out: GI50 (molar concentration) in Cell Line A2780.
[2] abbreviates: cells exposed for 24 h, read-out: GI50 values (μM) A2780.
Where [3] appears, read: 48 h drug exposure, read-out: GI50 (molar concentration) in Cell Line HCT15.
Where [4] appears, read: cells exposed for 24 h, read-out: GI50 values (μM) HCT15.
The mark [5] stands for this setting: 48 h drug exposure, read-out: GI50 (molar concentration) in Cell Line HT29.
Setting [6] is: cells exposed for 24 h, read-out: GI50 values (μM) HT29.
Where [7] appears, read: 48 h drug exposure, read-out: GI50 (molar concentration) in Cell Line Hop62.
Setting [8] is: cells exposed for 24 h, read-out: GI50 values (μM) Hop62.
Setting [9] is: 48 h drug exposure, read-out: GI50 (molar concentration) in Cell Line MCF7.
[10] abbreviates: cells exposed for 24 h, read-out: GI50 values (μM) MCF7.

Structures are written as SMILES. Like-named read-outs stand apart in the source and are kept apart here.

As a reminder, the IC50 is the concentration that gives 50% inhibition. A high value points to a need for much substance.

Protocol for CAKI-1: The objective of these studies were to determine the IC50 values for PEG-floxuridine conjugates against floxuridine-resistant cell lines based on data from previous Xenograft studies. The cells were exposed for 72 h, and cell viability assessed by using the CellTiter-Glo assay.
The objective of these studies was to determine the IC50 values for PEG-gemcitabine conjugates against gemcitabine-resistant cell lines based on data from previous Xenograft studies. The cells were exposed for 72 h, and cell viability assessed by using the CellTiter-Glo assay.
Description for MDCK cells: Bi-Directional Permeability of PEG-Floxuridine Conjugates in Caco-2 and MDCK Cells

With `COCCOCCOCCOCCOCCOCCOCCOP(=O)(O)OC[C@H]1O[C@@H](n2ccc(N)nc2=O)C(F)(F)[C@@H]1O.Cl` [Gemcitabine Mono (mPEG7), 5′-gemcitabine methoxy hepta(ethylene glycol) phosphate hydrochloride], the “ratio vs gem (GI50) A2780” value with A2780 is listed as 2. The GI50 was determined as 0.15 µM with A2780 (setting [1]); 0.15 µM in the series with A2780 (setting [2]); 2.3 µM in the series on HCT15 (setting [3]); 2.3 µM with HCT15 (setting [4]); 32 µM in the series with HT29 (setting [5]); 32 µM in the series on HT29 (setting [6]). Moreover, the GI50 in the series on Hop62 (setting [7]) worked out at 2.4 µM; in the series with Hop62 (setting [8]), 2.4 µM; in the series with MCF7 (setting [9]) it was 0.16 µM; in the series on MCF7 (setting [10]), 0.16 µM. Further, in the series on HCT15, the “ratio vs gem (GI50) HCT15” value stood at 14. Besides, the “ratio vs gem (GI50) HT29” value in the series on HT29 came out at 15. Further, the “ratio vs gem (GI50) Hop62” value in the series on Hop62 was determined as 1. In the series with MCF7, the “ratio vs gem (GI50) MCF7” value is 2. The “Ratio vs gem (IC50) CAKI-1” value in the series on CAKI-1 turned out to be 6. The midpoint of inhibition in the series on CAKI-1, the IC50, lay at 50 nM. The “Papp A -> B” value in the series on MDCK cells was <0.06 10^−6 cm/s. The “Papp B -> A” value in the series on MDCK cells is given as <0.08 10^−6 cm/s. Besides, in the series with MDCK cells, the Significant efflux entry is “No”. Moreover, the “percent recovery A -> B” value in the series with MDCK cells came out at 94%. Also, the “percent recovery B -> A” value in the series on MDCK cells is listed as 96%.

As for `COCCOCCOCCOP(=O)(O)OC[C@H]1O[C@@H](n2ccc(N)nc2=O)C(F)(F)[C@@H]1O.Cl` [Gemcitabine Mono (mPEG3), 5′-gemcitabine methoxy tri(ethylene glycol) phosphate hydrochloride], the “ratio vs gem (GI50) A2780” value in the series on A2780 turned out to be 2. The GI50 in the series on A2780 (setting [1]) is 0.15 µM; in the series with A2780 (setting [2]), 0.15 µM; with HCT15 (setting [3]), 2.2 µM; in the series with HCT15 (setting [4]), 2.2 µM; with HT29 (setting [5]), 28 µM; with HT29 (setting [6]) it was 28 µM. Besides, the GI50 in the series with Hop62 (setting [7]) is 2.6 µM; with Hop62 (setting [8]), 2.6 µM; with MCF7 (setting [9]) it was 0.16 µM; with MCF7 (setting [10]), 0.158 µM. The “ratio vs gem (GI50) HCT15” value in the series with HCT15 came out at 14. Moreover, in the series on HT29, the “ratio vs gem (GI50) HT29” value stood at 13. The “ratio vs gem (GI50) Hop62” value in the series on Hop62 came out at 1. The “ratio vs gem (GI50) MCF7” value in the series on MCF7 was 2. For the same compound, the “Ratio vs gem (IC50) CAKI-1” value in the series with CAKI-1 is on record as 3. Besides, in the series on CAKI-1, it took 21 nM to reach half-maximal inhibition (IC50). In addition, in the series on MDCK cells, the “Papp A -> B” value is recorded as <0.06 10^−6 cm/s. The “Papp B -> A” value with MDCK cells is recorded as <0.08 10^−6 cm/s. Further, the Significant efflux result in the series on MDCK cells is “No”. The “percent recovery A -> B” value with MDCK cells is recorded as 91%. Further, the “percent recovery B -> A” value in the series on MDCK cells came out at 96%.
